# From patent publication US20030119800A1, “Bone anabolic compounds and methods of use” (priority 2001, published 2003)
# Key:
# [1] = tested on: calvaria-derived murine osteoblastic cells; assay: Etoposide-induced apoptosis of calvaria-derived osteoblastic cells; assay type: cell-based, mouse
# Description: HeLa cells were co-transfected with reporter constructs in which SRE or AP-1 drive the expression of secreted alkaline phosphatase (SEAP), along with the wild type ERα (A and B); or its ligand binding domain (E), or E fused to a membrane (E-Mem) or nuclear (E-Nuc) localization sequence (A). A dominant negaitve (dn) MEK or dn Jnk were also introduced into a subset of the ERα transfected cells. […] In FIGS. 1A and 1B, 100% indicates activity in vehicle treated cells. (C) HeLa cells were co-transfected with the ERα and nEGFP and wild type or dn mutants of the indicated transcription factors. […] (D) HeLa cells (upper panel) were transiently co-transfected with the ERα, a nonphosphorylatable dn mutant of Bad. Calvaria-derived murine osteoblastic cells (lower panel) were pre-treated with the P13K inhibitor wortmannin. Cells were then treated as in (C). […] (E) Proposed model for a kinase-mediated non-genotropic regulation of gene transcription and apoptosis by sex steroids.
# Osteoblastic cells (A) were isolated from calvaria of neonatal female or male mice, the sex of which was determined by Southern blot analysis of liver DNA with a Y chromosome specific cDNA probe; and cultured as previously described. The ability of the indicated steroids to protect against etoposide induced apoptosis was determined as in FIG. 1D, lower panel. (B) Osteoclasts were generated in bone marrow cultures from adult female or male mice, and then treated with vehicle or the indicated concentrations of steroids for 24 hours at which point the number of cells undergoing apoptosis was determined. Representative results from 1 of 4 females and 1 of 4 males examined are shown. Each point represents the mean of triplicate determinations±SD. *p<0.05 vs. vehicle, by ANOVA. (C & D) Eight-month old Swiss Webster mice (n=8-10 per group) were sham-operated, ovariectomized (OVX) or orchidectomized (ORX). […] BMD and wet uterine or seminal vesicle weight was determined six weeks later. Bars indicate means±SD. *p<0.05 vs OVX or ORX.
# Quantification of apoptotic cells in vitro: Apoptosis of HeLa cells or calvaria-derived osteoblastic cells was quantified by direct visualization of changes in nuclear morphology or by trypan blue staining, respectively, as previously described (Kousteni et al, 2001). Apoptosis of osteoclasts, derived from bone marrow cells cultured with 30 ng/ml M-CSF and 30 ng/ml soluble RANK ligand, was quantified by measuring caspase 3 activity as previously described (Weinstein et al, 2002).
# ERα = target: T1, ERα (Homo sapiens, UniProt P03372); assay: SRE-SEAP and AP-1-SEAP reporter assays in HeLa cells transfected with ERα; assay type: cell-based; settings: steroids 10^−8 M for 15 minutes (E2 as little as five minutes), SEAP six hours later
# T1 construct: HeLa cells transfected with the full length ERα; expressed in transfected cells; host or cells: HeLa
# T1 sequence (P03372 whole entry): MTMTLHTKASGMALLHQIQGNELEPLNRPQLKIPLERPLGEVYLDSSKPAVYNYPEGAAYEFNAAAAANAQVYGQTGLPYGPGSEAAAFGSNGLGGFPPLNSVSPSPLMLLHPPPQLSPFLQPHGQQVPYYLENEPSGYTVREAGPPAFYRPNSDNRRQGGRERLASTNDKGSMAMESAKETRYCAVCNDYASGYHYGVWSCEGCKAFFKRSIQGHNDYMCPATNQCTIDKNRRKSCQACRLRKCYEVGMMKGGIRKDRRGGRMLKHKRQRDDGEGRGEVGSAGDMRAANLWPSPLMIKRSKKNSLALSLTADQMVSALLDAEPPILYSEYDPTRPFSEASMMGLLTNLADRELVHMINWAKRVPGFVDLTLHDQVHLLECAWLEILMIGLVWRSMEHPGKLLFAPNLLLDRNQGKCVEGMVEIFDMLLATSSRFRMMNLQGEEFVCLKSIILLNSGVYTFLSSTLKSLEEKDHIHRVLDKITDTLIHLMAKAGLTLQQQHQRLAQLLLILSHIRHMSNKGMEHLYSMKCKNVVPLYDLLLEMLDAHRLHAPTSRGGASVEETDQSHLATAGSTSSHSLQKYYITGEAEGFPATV
# Protocol: HeLa cells were co-transfected with reporter constructs in which SRE or AP-1 drive the expression of secreted alkaline phosphatase (SEAP), along with the wild type ERα (A and B); or its ligand binding domain (E), or E fused to a membrane (E-Mem) or nuclear (E-Nuc) localization sequence (A). A dominant negaitve (dn) MEK or dn Jnk were also introduced into a subset of the ERα transfected cells. Cells were exposed to vehicle or the indicated steroids (10^−8M) for 15 minutes. The steroid containing media were then removed, the cells were washed twice, and the cultures were continued in fresh medium without steroids. Supernatants were collected six hours later and SEAP activity was assayed. In FIGS. 1A and 1B, 100% indicates activity in vehicle treated cells. (C) HeLa cells were co-transfected with the ERα and nEGFP and wild type or dn mutants of the indicated transcription factors. […] (D) HeLa cells (upper panel) were transiently co-transfected with the ERα, a nonphosphorylatable dn mutant of Bad. […] Cells were then treated as in (C).
# Transient transfections and reporter assays: HeLa cells were transfected using Lipofectamine Plus (Life Technologies Inc.). For reporter assays (luciferase or secreated alkaline phosphatase SEAP), serum-starved cells were treated with the indicated steroids for 15 min after which the steroid-containing media were removed, cells washed twice with 1% BSA in PBS, and fresh media without steroid were added. SEAP or luciferase assays were performed 6 h later using the Great EscAPe SEAP Chemiluminescence Kit (Clontech, Palo Alto, Calif.) or the dual luciferase Kit (Promega, Madison, Wis.), respectively, according to the manufacturer's instructions. Both reporter activities were normalized to renilla luciferase activity.
# MCF-7 cells = assay: MCF-7 cell proliferation assay (3H-thymidine uptake); assay type: cell-based; settings: 10^−12-10^−7 M for 48 h
# Description: Wet uterine (A) or seminal vesicle weight (B) of female and male mice described in FIG. 11. […] Note the following morphologic differences in the uteri of OVX- and OVX+4-estren-3α,17β-diol-treated mice as compared to uteri from sham-operated and OVX+E2-treated mice: thin and atrophic columnar epithelium; compact stroma; decreased number of glands; decreased nucleus to cytoplasmic ratio in the columnar epithelial, endometrial stroma, and myometrial cells; and absence of mitotic activity. (D) Proliferation of MCF-7 cells was determined by ^3H-thymidine uptake.
# MCF-7 cell proliferation assay: MCF-7 cells were serum-starved in the presence of 10^−8 M ICI 182,780 for 96 h, after which the ICI-containing medium was replaced with medium-containing vehicle or 10^−12-10^−7 M of the indicated steroids for an additional 48 h. At that time, proliferation was assayed by measuring ^3H-Thymidine uptake as previously described (Bellido et al, 1997).
smiles,measurement,setting,value
"C[C@]12CC[C@H]3[C@@H](CCC4=C[C@H](O)CC[C@@H]43)[C@@H]1CC[C@@H]2O [4-estren-3α,17β-diol]",difference in potency in osteoblasts from one sex versus the other,[1]; cell preparations from females or males,no difference
same,etoposide-induced apoptosis in primary cultures of osteoblasts,"[1]; cells from female or male mice, dose dependent manner",attenuated etoposide-induced apoptosis
same,AP-1-dependent transcriptional activity (AP-1-SEAP),ERα,downregulation of AP-1
same,SRE-dependent transcriptional activity (SRE-SEAP),ERα,Stimulation of SRE
same,MCF-7 cell proliferation,MCF-7 cells,did not stimulate
